Each compound was assayed on digoxin antibody.
Format: binding
Protocol: Measurement of digoxin-like immunoreactivity: Radioimmunoassay was performed with digoxin RIA kit obtained from Amersham International (Amersham, Buckinghamshire, England). Assay conditions were as recommended by the manufacturer.
Digoxin radioimmunoassay was performed using commercially available kit. The concentration of the partially purified lens DLC was determined from its ability to inhibit [^3H]-ouabain binding assuming identical affinity to the ouabain receptor as ouabain and MW of 372.

Question: With `C[C@]12CC[C@H](O)C[C@H]1CC[C@@H]1[C@@H]2CC[C@]2(C)[C@@H](c3ccc(=O)oc3)CC[C@]12O` [Bufalin] as the compound, how does the Cross reactivity read?
Answer: 0.045%

Question: What about the Digoxin-like immunoreactive material of the same compound?
Answer: 4.53 ng/mL

Question: How did the Cross reactivity turn out when `C[C@H]1O[C@@H](O[C@H]2[C@@H](O)C[C@H](O[C@H]3[C@@H](O)C[C@H](O[C@H]4CC[C@@]5(C)[C@H](CC[C@@H]6[C@@H]5C[C@@H](O)[C@]5(C)[C@@H](C7=CC(=O)OC7)CC[C@]65O)C4)O[C@@H]3C)O[C@@H]2C)C[C@H](O)[C@@H]1O` [Digoxin] was run?
Answer: 100%

Question: And the Digoxin-like immunoreactive material?
Answer: 10,000 ng/ml

Question: Which results are given for `C[C@@H]1O[C@@H](O[C@H]2C[C@@H](O)[C@]3(CO)[C@H]4[C@H](O)C[C@]5(C)[C@@H](C6=CC(=O)OC6)CC[C@]5(O)[C@@H]4CC[C@]3(O)C2)[C@H](O)[C@H](O)[C@H]1O` [Ouabain]?
Answer: Cross reactivity: 0.012%; Digoxin-like immunoreactive material: 1.21 ng/mL

From EP0671924B1, “DIGITALIS-LIKE COMPOUNDS” (YISSUM RESEARCH DEVELOPMENT COMPANY OF THE HEBREW …, priority 1992, dated 1994)
